Measurements as given in patent US20020137929A1, “1 - (3-heterocyclylphenyl) isothiourea, -isourea, -guanidine and -amidine herbicidal agents” (Intellectual Property Department, BASF Aktiengesellschaft, priority 1998, published 2002).

Tests used:
[1] = test system: IPOHE (Morningglory, Ivyleaf); assay: Preemergence herbicidal evaluation; format: in vivo, Ipomoea hederacea; details: rated 4-5 weeks after treatment
Summary of the method: (§1)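 Preemergence soil application of compound, sprayed in aqueous acetone at rates equivalent to about 0.0156 to 0.500 kg per hectare onto freshly sown cups. Plant response was judged by eye on a 0-9 scale four to five weeks later.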

GALAP (Galium) = assay: Postemergence herbicidal evaluation; format: in vivo, Galium aparine; details: postemergence
Summary of the method: (§2)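 Two-week seedlings sprayed postemergence at 40 psi; formulation: 1:1 acetone/water, 0.5% TWEEN 20; application ≈0.0156–0.500 kg/ha. Greenhouse grow-out, then 0–9 visual scoring at 4–5 weeks.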

[2] = test system: ECHORC (Watergrass (Calif.)); assay: Preemergence weed control under flooded paddy conditions; format: in vivo, Echinochloa oryzoides; details: rated 3-4 weeks after treatment
Summary of the method: (§3)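 Silt loam, seeds in top 0.5 cm; flood held 1.5-3 cm; test cpd as acetone/water 50/50 into flood water, ~0.0313-0.500 kg/ha a.i.; greenhouse 3-4 wk; visual 0-9 score vs control.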

SETVI (Foxtail, Green) [3] = assay: Postemergence herbicidal evaluation; format: in vivo, Setaria viridis; details: postemergence
Summary of the method: as §2

CYPIR (Rice Flatsedge) = assay: Preemergence weed control under flooded paddy conditions; format: in vivo, Cyperus iria; details: rated 3-4 weeks after treatment
Summary of the method: as §3

[4] = test system: IPOHE (Morningglory, Ivyleaf); assay: Postemergence herbicidal evaluation; format: in vivo, Ipomoea hederacea; details: postemergence
Summary of the method: as §2

MOOVA (Monochoria) = assay: Preemergence weed control under flooded paddy conditions; format: in vivo, Monochoria vaginalis; details: rated 3-4 weeks after treatment
Summary of the method: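 Seeds or propagules sown in top 0.5 cm of silt loam soil, flooded 1.5 to 3 cm above surface throughout. Compound in 50/50 v/v aqueous/acetone pipetted into flood water at about 0.0313 to 0.500 kg/ha. Visual 0-9 rating versus control after three to four weeks in greenhouse.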

ECHCG (Barnyardgrass) = assay: Preemergence herbicidal evaluation; format: in vivo, Echinochloa crus-galli; details: rated 4-5 weeks after treatment
Summary of the method: as §1

ZEAMX (Corn, Field) = assay: Preemergence herbicidal evaluation; format: in vivo, Zea mays; details: rated 4-5 weeks after treatment
Summary of the method: as §1

SETVI (Foxtail, Green) [5] = assay: Preemergence herbicidal evaluation; format: in vivo, Setaria viridis; details: rated 4-5 weeks after treatment
Summary of the method: as §1

[6] = test system: TRZAWR (Wheat, Winter, cv Riband); assay: Postemergence herbicidal evaluation; format: in vivo, Triticum aestivum; details: postemergence
Summary of the method: as §2

ABUTH (Velvetleaf) = assay: Preemergence herbicidal evaluation; format: in vivo, Abutilon theophrasti; details: rated 4-5 weeks after treatment
Summary of the method: as §1

[7] = rate 0.0156 kg/ha, rating scale 0-9
[8] = rate 0.0313 kg/ha, rating scale 0-9
[9] = rate 0.0625 kg/ha, rating scale 0-9
[10] = rate 0.1250 kg/ha, rating scale 0-9
[11] = rate 0.2500 kg/ha, rating scale 0-9

CCOC(=O)CN1C(=O)C(CC(=O)O)SC1=Nc1cc(N2C(=O)CC(C(F)(F)F)CC2=O)c(F)cc1Cl (stereo not shown) [Compound 170, 2-{{2-Chloro-5-[2,6-dioxo-4-(trifluoromethyl)-piperidino]-4-fluorophenyl}imino}-4-oxo-3,5-thiazolidinediacetic acid, 3-ethyl ester]
6.0: Herbicidal rating SETVI (SETVI (Foxtail, Green) [3]; rate 0.0156 kg/ha) | Preemergence herbicidal rating ABUTH (ABUTH (Velvetleaf); 0.0313 kg/ha)
7.0: Preemergence herbicidal rating IPOHE ([1]; 0.0313 kg/ha) | Preemergence herbicidal rating IPOHE ([1]; 0.1250 kg/ha) | Preemergence herbicidal rating ZEAMX (ZEAMX (Corn, Field); 0.0313 kg/ha)
8.0: Preemergence herbicidal rating ZEAMX (ZEAMX (Corn, Field); 0.0625 kg/ha)
0.0: Herbicidal rating GALAP (GALAP (Galium); rate 0.0156 kg/ha) | Preemergence herbicidal rating ABUTH (ABUTH (Velvetleaf); 0.0156 kg/ha)
3.0: Preemergence herbicidal rating IPOHE ([1]; 0.0156 kg/ha) | Herbicidal rating GALAP (GALAP (Galium); rate 0.0313 kg/ha) | Preemergence herbicidal rating ECHCG (ECHCG (Barnyardgrass); 0.0156 kg/ha)
4.0: Herbicidal rating GALAP (GALAP (Galium); rate 0.0625 kg/ha) | Herbicidal rating TRZAWR ([6]; rate 0.0313 kg/ha)
5.0: Preemergence herbicidal rating ZEAMX (ZEAMX (Corn, Field); 0.0156 kg/ha) | Herbicidal rating TRZAWR ([6]; rate 0.0625 kg/ha)
9.0: Preemergence herbicidal rating IPOHE ([1]; 0.2500 kg/ha) | herbicidal effect rating, ECHORC ([2]; 0.0313 kg/ha) | herbicidal effect rating, ECHORC ([2]; 0.0625 kg/ha) | herbicidal effect rating, ECHORC ([2]; 0.1250 kg/ha) | herbicidal effect rating, ECHORC ([2]; 0.2500 kg/ha) | Herbicidal rating SETVI (SETVI (Foxtail, Green) [3]; rate 0.0313 kg/ha) | Herbicidal rating SETVI (SETVI (Foxtail, Green) [3]; rate 0.0625 kg/ha) | herbicidal effect rating, CYPIR (CYPIR (Rice Flatsedge); 0.0313 kg/ha) | herbicidal effect rating, CYPIR (CYPIR (Rice Flatsedge); 0.0625 kg/ha) | herbicidal effect rating, CYPIR (CYPIR (Rice Flatsedge); 0.1250 kg/ha) | herbicidal effect rating, CYPIR (CYPIR (Rice Flatsedge); 0.2500 kg/ha) | Herbicidal rating IPOHE ([4]; rate 0.0156 kg/ha) | Herbicidal rating IPOHE ([4]; rate 0.0313 kg/ha) | Herbicidal rating IPOHE ([4]; rate 0.0625 kg/ha) | herbicidal effect rating, MOOVA (MOOVA (Monochoria); 0.0313 kg/ha) | herbicidal effect rating, MOOVA (MOOVA (Monochoria); 0.0625 kg/ha) | herbicidal effect rating, MOOVA (MOOVA (Monochoria); 0.1250 kg/ha) | herbicidal effect rating, MOOVA (MOOVA (Monochoria); 0.2500 kg/ha) | Preemergence herbicidal rating ECHCG (ECHCG (Barnyardgrass); 0.0313 kg/ha) | Preemergence herbicidal rating ECHCG (ECHCG (Barnyardgrass); 0.0625 kg/ha) | Preemergence herbicidal rating ECHCG (ECHCG (Barnyardgrass); 0.1250 kg/ha) | Preemergence herbicidal rating ECHCG (ECHCG (Barnyardgrass); 0.2500 kg/ha) | Preemergence herbicidal rating ZEAMX (ZEAMX (Corn, Field); 0.1250 kg/ha) | Preemergence herbicidal rating ZEAMX (ZEAMX (Corn, Field); 0.2500 kg/ha) | Preemergence herbicidal rating SETVI (SETVI (Foxtail, Green) [5]; 0.0156 kg/ha) | Preemergence herbicidal rating SETVI (SETVI (Foxtail, Green) [5]; 0.0313 kg/ha) | Preemergence herbicidal rating SETVI (SETVI (Foxtail, Green) [5]; 0.0625 kg/ha) | Preemergence herbicidal rating SETVI (SETVI (Foxtail, Green) [5]; 0.1250 kg/ha) | Preemergence herbicidal rating SETVI (SETVI (Foxtail, Green) [5]; 0.2500 kg/ha) | Preemergence herbicidal rating ABUTH (ABUTH (Velvetleaf); 0.0625 kg/ha) | Preemergence herbicidal rating ABUTH (ABUTH (Velvetleaf); 0.1250 kg/ha) | Preemergence herbicidal rating ABUTH (ABUTH (Velvetleaf); 0.2500 kg/ha)
3.5: Herbicidal rating TRZAWR ([6]; rate 0.0156 kg/ha)

Cn1c(C(F)(F)F)cc(=O)n(-c2cc(N=C3SCC(=O)N3Cc3ccc(C(F)(F)F)cc3)c(Cl)cc2F)c1=O [Compound 141, 3-{4-Chloro-2-fluoro-5-{{3-[p-(trifluoromethyl)benzyl]-4-oxo-2-thiazolidinylidene}-amino}phenyl}-1-methyl-6-(trifluoromethyl)-2,4 (1H, 3H)-pyrimidinedione]
3.0: Preemergence herbicidal rating IPOHE [1, 11] | Herbicidal rating TRZAWR ([6]; rate 0.0156 kg/ha)
3.5: Herbicidal rating TRZAWR ([6]; rate 0.0313 kg/ha)
6.0: herbicidal effect rating, CYPIR (CYPIR (Rice Flatsedge); 0.1250 kg/ha) | herbicidal effect rating, CYPIR (CYPIR (Rice Flatsedge); 0.2500 kg/ha)
4.5: Herbicidal rating TRZAWR ([6]; rate 0.0625 kg/ha)
5.0: herbicidal effect rating, ECHORC ([2]; 0.0313 kg/ha) | herbicidal effect rating, ECHORC ([2]; 0.0625 kg/ha) | herbicidal effect rating, CYPIR (CYPIR (Rice Flatsedge); 0.0625 kg/ha)
4.0: herbicidal effect rating, CYPIR (CYPIR (Rice Flatsedge); 0.0313 kg/ha) | Preemergence herbicidal rating SETVI (SETVI (Foxtail, Green) [5]; [11]) | Preemergence herbicidal rating ABUTH (ABUTH (Velvetleaf); [10])
9.0: Herbicidal rating IPOHE ([4]; rate 0.0156 kg/ha) | Herbicidal rating IPOHE ([4]; rate 0.0313 kg/ha) | Herbicidal rating IPOHE ([4]; rate 0.0625 kg/ha) | herbicidal effect rating, MOOVA (MOOVA (Monochoria); 0.2500 kg/ha) | Preemergence herbicidal rating ABUTH (ABUTH (Velvetleaf); [11])
2.0: Herbicidal rating GALAP (GALAP (Galium); rate 0.0313 kg/ha) | Herbicidal rating GALAP (GALAP (Galium); rate 0.0625 kg/ha) | Preemergence herbicidal rating ECHCG (ECHCG (Barnyardgrass); [11]) | Preemergence herbicidal rating ZEAMX (ZEAMX (Corn, Field); [11])
8.0: herbicidal effect rating, MOOVA (MOOVA (Monochoria); 0.0625 kg/ha) | herbicidal effect rating, MOOVA (MOOVA (Monochoria); 0.1250 kg/ha)
0.0: Preemergence herbicidal rating IPOHE [1, 7] | Preemergence herbicidal rating IPOHE [1, 8] | Preemergence herbicidal rating IPOHE [1, 9] | Preemergence herbicidal rating IPOHE [1, 10] | Herbicidal rating GALAP (GALAP (Galium); rate 0.0156 kg/ha) | Herbicidal rating SETVI (SETVI (Foxtail, Green) [3]; rate 0.0156 kg/ha) | Herbicidal rating SETVI (SETVI (Foxtail, Green) [3]; rate 0.0313 kg/ha) | Herbicidal rating SETVI (SETVI (Foxtail, Green) [3]; rate 0.0625 kg/ha) | Preemergence herbicidal rating ECHCG (ECHCG (Barnyardgrass); [7]) | Preemergence herbicidal rating ECHCG (ECHCG (Barnyardgrass); [8]) | Preemergence herbicidal rating ECHCG (ECHCG (Barnyardgrass); [9]) | Preemergence herbicidal rating ECHCG (ECHCG (Barnyardgrass); [10]) | Preemergence herbicidal rating ZEAMX (ZEAMX (Corn, Field); [7]) | Preemergence herbicidal rating ZEAMX (ZEAMX (Corn, Field); [8]) | Preemergence herbicidal rating ZEAMX (ZEAMX (Corn, Field); [9]) | Preemergence herbicidal rating ZEAMX (ZEAMX (Corn, Field); [10]) | Preemergence herbicidal rating SETVI (SETVI (Foxtail, Green) [5]; [7]) | Preemergence herbicidal rating SETVI (SETVI (Foxtail, Green) [5]; [8]) | Preemergence herbicidal rating SETVI (SETVI (Foxtail, Green) [5]; [9]) | Preemergence herbicidal rating SETVI (SETVI (Foxtail, Green) [5]; [10]) | Preemergence herbicidal rating ABUTH (ABUTH (Velvetleaf); [7]) | Preemergence herbicidal rating ABUTH (ABUTH (Velvetleaf); [8]) | Preemergence herbicidal rating ABUTH (ABUTH (Velvetleaf); [9])
7.0: herbicidal effect rating, ECHORC ([2]; 0.1250 kg/ha) | herbicidal effect rating, ECHORC ([2]; 0.2500 kg/ha) | herbicidal effect rating, MOOVA (MOOVA (Monochoria); 0.0313 kg/ha)
